We go through 21 compounds from US20260274856A1, “COVALENT CEREBLON LIGANDS” (C4 THERAPEUTICS, INC., priority 2023, published 2026).

The test system of assay [1] is A375—NRASQ^61K cells (cell line A375.11). The experiment in a line: CTGlo (CellTiter-Glo 2.0) Cell Viability Assay. Type of assay: cell-based. To be noted: for Emax: lowest % viability achieved. As for the experimental part:
Compounds of the present invention were tested for their effect on the viability of A375—NRASQ^61K cells by quantification of ATP using the CellTiter-Glo® 2.0 Cell Viability Assay (Catalog No. G9243, Promega, Madison, WI, USA). This assay produces a luminescent signal in the presence of ATP, which is indicative of metabolically active cells, making the luminescence readout proportional to the number of viable cells. A375—NRASQ^61K cells, also referred to here as cell line A375.11, (harboring BRAF homozygous V600E mutation and NRAS homozygous Q61K mutation) were purchased from ATCC (Catalog No. CRL-1619IG-2, Manassas, VA, USA).
Cells were also plated to a 384-well plate with no compound treatment, to which CellTiter-Glo® reagent was added and luminescence was read right after plating to act as a baseline signal at time of plating (To).
DMSO treated cells with no CellTiter-Glo® reagent added were used as the background or positive control (P). Viability was determined by subtracting out the average background signal (P) and normalized to the average untreated signal (N) set at 100%.

The target in assay [2] is mutant BRAF V600E (Homo sapiens, UniProt P15056, V600E). The assay is described as follows: BRAF V600E HiBiT Degradation Assay in A375.10 cells. The settings on record: for HiBIT-Degradation A375.10 BRAF 2 hours IP nM / DC50 / HiBIT-Degradation A375.10 BRAF 24 hours IP nM: A375.10 cells; for HiBIT-Degradation A375.10 BRAF 2 hours IP nM / HiBIT-Degradation A375.10 BRAF 24 hours IP nM: inflection point of the dose-response curve. On the technique in general: HiBiT is a short tag that completes a luciferase, so light tracks the accessible tagged protein.
Chain of mutant BRAF V600E (P15056 whole entry V600E): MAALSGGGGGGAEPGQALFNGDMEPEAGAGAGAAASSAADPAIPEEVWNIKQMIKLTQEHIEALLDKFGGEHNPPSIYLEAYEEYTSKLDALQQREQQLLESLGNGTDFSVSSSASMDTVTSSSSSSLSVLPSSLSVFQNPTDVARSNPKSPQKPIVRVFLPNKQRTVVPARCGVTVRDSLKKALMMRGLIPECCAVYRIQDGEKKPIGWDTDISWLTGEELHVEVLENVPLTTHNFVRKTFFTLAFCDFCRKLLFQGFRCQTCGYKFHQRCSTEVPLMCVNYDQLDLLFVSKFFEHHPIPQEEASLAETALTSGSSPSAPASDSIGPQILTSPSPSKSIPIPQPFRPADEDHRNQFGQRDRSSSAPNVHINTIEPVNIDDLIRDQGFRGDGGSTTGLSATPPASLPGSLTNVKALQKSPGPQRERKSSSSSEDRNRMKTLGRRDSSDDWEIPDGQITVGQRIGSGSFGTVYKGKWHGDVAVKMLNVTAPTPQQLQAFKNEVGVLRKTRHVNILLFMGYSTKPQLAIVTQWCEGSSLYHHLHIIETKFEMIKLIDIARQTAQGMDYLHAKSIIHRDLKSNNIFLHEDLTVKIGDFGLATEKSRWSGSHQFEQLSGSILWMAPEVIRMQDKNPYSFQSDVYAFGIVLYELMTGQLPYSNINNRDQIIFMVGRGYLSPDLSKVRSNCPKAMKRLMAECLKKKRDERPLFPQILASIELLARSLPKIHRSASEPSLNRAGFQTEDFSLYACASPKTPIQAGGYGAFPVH
Method: Compounds of this invention were tested for degradation of mutant BRAF V600E using the HiBiT assay, a luminescence-based assay for quantification of cellular protein levels using the Nano-Glo@HiBiT Lytic Detection System (Catalog No. N3050, Promega, Madison, WI USA). This assay utilizes the HiBiT tag on a protein of interest, which creates a luminescent signal in the presence of a complementing peptide and its substrate, the quantification of which 10 is proportional to the amount of HiBiT-tagged protein in the cell.
A375 cells were engineered to express HiBiT tagged BRAF V600E by CRISPR knock-in of the HiBiT tag to the endogenous BRAF V600E locus, followed by selection of a clonal population containing 15 the appropriate knock-in (referred to here as cell line A375.10). […] Cell culture flasks and 384-well microplates 20 were acquired from VWR (Radnor, PA, USA).
Plates were then spun briefly, and cells were incubated with compound at 37° C. for 2 hoursor 24 hours.
Following the appropriate treatment time, Nano-Glo® HiBiT Lytic Assay reagents were added to the cells per the manufacturer's instructions by adding 30ul of reagent per well, and 10 the luminescence signal was acquired by plate reader. Cells treated with DMSO only (no test compound treatment) were used as the negative control (N). Media only (no cells added) with Nano-Glo reagent addition was used as the background or positive control (P). The percent response of compound treated samples were calculated by subtracting out the background signal (P) and normalizing to the DMSO control (N) as follows. % Response=100 x (Treated Signal - Average (P))/(Average (N) - Average (P)).
Data were analyzed with a 4-parameter logistic fit to generate sigmoidal dose-response curves. […] The Emax, or maximum effect of each compound, represents the amount of residual protein remaining in the cell following compound treatment.
The experiment was conducted at least once for each compound. If the experiment was conducted multiple times, the data shown in the table is the average of the two or more experiments.

The mark [3] stands for this setting: 96 h, IP, read-out: CTGlo A375.11 96 hours IP.
The mark [4] stands for this setting: half-maximal inhibition of cell growth, table title: A375.11 96 hours, read-out: CTGlo A375.11 96 hours GI50.
[5] abbreviates: 96 hours, IP, read-out: CTGlo A375.11 96 hours IP.
The mark [6] stands for this setting: read-out: HIBIT-Degradation A375.10 BRAF 2 hours DC50 nM, 2 hours.
Where [7] appears, read: read-out: HiBIT-Degradation A375.10 BRAF 2 hours Emax.
The mark [8] stands for this setting: read-out: HiBIT-Degradation A375.10 BRAF 24 hours DC50 nM, 24 hours.
[9] abbreviates: read-out: HiBIT-Degradation A375.10 BRAF 24 hours Emax.

Read-outs that look alike come from different tables or passages of the source.

As for `CCN(C)S(=O)(=O)Nc1ccc(F)c(Oc2ccc3ncn([C@@H]4COC5(CCN(C(=O)CN6CCC(c7ccc(C8CCC(=O)NC8=O)cc7OS(=O)(=O)F)CC6)CC5)C4)c(=O)c3c2)c1C#N` (stereo partly drawn) [drawing 1168], the GI50 in assay [1] (setting [3]) was 1 to 10 µM; in assay [1] (setting [4]) it was over 10 µM. The compound further came in with an Emax in assay [1] (96 hours) of 60 to 95%.
The matching figures for `CCN(C)S(=O)(=O)Nc1ccc(F)c(Oc2ccc3ncn([C@H]4COC5(CCN(C(=O)CN6CCC(c7ccc(C8CCC(=O)NC8=O)cc7OS(=O)(=O)F)CC6)CC5)C4)c(=O)c3c2)c1C#N` (stereo partly drawn) [drawing 1169]: 1 to 10 µM, over 10 µM and under 60%.
On to `CCN(C)S(=O)(=O)Nc1ccc(F)c(Oc2ccc3ncn([C@@H]4COC5(CCN(C(=O)CN6CCC(c7ccc(N8CCC(=O)NC8=O)cc7OS(C)(=O)=O)CC6)CC5)C4)c(=O)c3c2)c1C#N` [drawing 1173], for which the figures for the GI50 in assay [1] (setting [5]) and in assay [1] (setting [4]) were 1 to 10 µM and over 10 µM, respectively. The Emax in assay [1] (96 hours) was 60 to 95%.
Consider `CCN(C)S(=O)(=O)Nc1ccc(F)c(Oc2ccc3ncn([C@H]4COC5(CCN(C(=O)CN6CCC(c7ccc(N8CCC(=O)NC8=O)cc7OS(=O)(=O)F)CC6)CC5)C4)c(=O)c3c2)c1C#N` [drawing 1180], for which the GI50 in assay [1] (setting [3]) is 1 to 10 µM; in assay [1] (setting [4]), over 10 µM. For the same compound, the Emax in assay [1] (96 hours) lay in the range of 60 to 95%.
Turning to `CCN(C)S(=O)(=O)Nc1ccc(F)c(Oc2ccc3ncn([C@@H]4COC5(CCN(C(=O)CN6CCN(c7ccc(N8CCC(=O)NC8=O)cc7OS(=O)(=O)F)CC6)CC5)C4)c(=O)c3c2)c1C#N` [drawing 1185], the GI50 in assay [1] (setting [3]) and in assay [1] (setting [4]) was over 10 µM throughout. Moreover, the Emax in assay [1] (96 hours) lay within 60 to 95%.
Turning to `CCN(C)S(=O)(=O)Nc1ccc(F)c(Oc2ccc3ncn([C@@H]4COC5(CCN(C(=O)CN6CCC(c7ccc(OC8CCC(=O)NC8=O)cc7S(=O)(=O)F)CC6)CC5)C4)c(=O)c3c2)c1C#N` (stereo partly drawn) [drawing 1175], the GI50 in assay [1] (setting [3]) and in assay [1] (setting [4]) was over 10 µM in each case. Besides, the Emax in assay [1] (96 hours) is under 60%.
For `CCN(C)S(=O)(=O)Nc1ccc(F)c(Oc2ccc3ncn([C@H]4COC5(CCN(C(=O)CN6CCC(c7ccc(OC8CCC(=O)NC8=O)cc7OS(=O)(=O)F)CC6)CC5)C4)c(=O)c3c2)c1C#N` (stereo partly drawn) [drawing 1179], the GI50 in assay [1] (setting [3]) is 1 to 10 µM; in assay [1] (setting [4]) it was over 10 µM. In assay [1] (96 hours), the Emax was in the range of 60 to 95%.
Regarding `CCN(C)S(=O)(=O)Nc1ccc(F)c(Oc2ccc3ncn([C@H]4COC5(CCN(C(=O)CN6CCC(c7ccc(OC8CCC(=O)NC8=O)cc7OS(C)(=O)=O)CC6)CC5)C4)c(=O)c3c2)c1C#N` (stereo partly drawn) [drawing 1184], the GI50 in assay [1] (setting [5]) and in assay [1] (setting [4]) was over 10 µM each time. Besides, the Emax in assay [1] (96 hours) lay in the range of 60 to 95%.
`CCN(C)S(=O)(=O)Nc1ccc(F)c(Oc2ccc3ncn([C@@H]4COC5(CCN(C(=O)CN6CCC(c7ccc(C8CCC(=O)NC8=O)cc7OS(C)(=O)=O)CC6)CC5)C4)c(=O)c3c2)c1C#N` (stereo partly drawn) [drawing 1182]: the GI50 in assay [1] (setting [5]) and in assay [1] (setting [4]) was over 10 µM each time. The Emax in assay [1] (96 hours) lay in the range of 60 to 95%.
`CCN(C)S(=O)(=O)Nc1ccc(F)c(Oc2ccc3ncn([C@@H]4COC5(CCN(C(=O)CN6CCC(c7ccc(NC8CCC(=O)NC8=O)cc7OS(C)(=O)=O)CC6)CC5)C4)c(=O)c3c2)c1C#N` (stereo partly drawn) [drawing 1188]: the GI50 in assay [1] (setting [5]) and in assay [1] (setting [4]) was over 10 µM each time. Further, the Emax in assay [1] (96 hours) is over 95%.
Turning to `CCN(C)S(=O)(=O)Nc1ccc(F)c(Oc2ccc3ncn([C@@H]4COC5(CCN(C(=O)CN6CCC(c7ccc(OC8CCC(=O)NC8=O)cc7OS(=O)(=O)F)CC6)CC5)C4)c(=O)c3c2)c1C#N` (stereo partly drawn) [drawing 1186], the GI50 in assay [1] (setting [3]) and in assay [1] (setting [4]) was over 10 µM throughout. The Emax in assay [1] (96 hours) fell in the range of 60 to 95%.
`CCN(C)S(=O)(=O)Nc1ccc(F)c(Oc2ccc3ncn([C@@H]4COC5(CCN(C(=O)CN6CCC(c7ccc(NC8CCC(=O)NC8=O)cc7S(=O)(=O)F)CC6)CC5)C4)c(=O)c3c2)c1C#N` (stereo partly drawn) [drawing 1177]: the GI50 in assay [1] (setting [3]) and in assay [1] (setting [4]) was over 10 µM in each case. In assay [1] (96 hours), this compound had an Emax of 60 to 95%.
Regarding `CCN(C)S(=O)(=O)Nc1ccc(F)c(Oc2ccc3ncn([C@@H]4COC5(CCN(C(=O)CN6CCC(c7ccc(OC8CCC(=O)NC8=O)cc7OS(C)(=O)=O)CC6)CC5)C4)c(=O)c3c2)c1C#N` (stereo partly drawn) [drawing 1187], the GI50 in assay [1] (setting [5]) and in assay [1] (setting [4]) was over 10 µM throughout. For the same compound, in assay [1] (96 hours), the Emax lay within 60 to 95%.
Usually DC50 stands for the midpoint of the concentration-degradation curve. Consider `CCN(C)S(=O)(=O)Nc1ccc(F)c(Oc2ccc3ncn([C@@H]4COC5(CCN(C(=O)CN6CCC(c7ccc(OC8CCC(=O)NC8=O)cc7S(=O)(=O)F)CC6)CC5)C4)c(=O)c3c2)c1C#N` (stereo partly drawn) [drawing 1198], for which the “HiBIT-Degradation A375.10 BRAF 2 hours IP nM” value in assay [2] (2 hours) is “*** (<= 1 μM is)”. Further, the DC50 in assay [2] (setting [6]) was in the range of 1000 to 10000 nM. For the same compound, in assay [2] (setting [7]), the Emax lay in the range of 60 to 95%.
As for `CCN(C)S(=O)(=O)Nc1ccc(F)c(Oc2ccc3ncn([C@H]4COC5(CCN(C(=O)CN6CCC(c7ccc(NC8CCC(=O)NC8=O)cc7OS(C)(=O)=O)CC6)CC5)C4)c(=O)c3c2)c1C#N` (stereo partly drawn) [drawing 1217], the “HiBIT-Degradation A375.10 BRAF 24 hours IP nM” value in assay [2] (24 hours) is given as “*** (<= 1 μM is ***)”. Besides, in assay [2] (setting [8]), the 50% degradation concentration (DC50) is under 1000 nM. Besides, the Emax in assay [2] (setting [9]) was under 60%.
As for `CCN(C)S(=O)(=O)Nc1ccc(F)c(Oc2ccc3ncn([C@@H]4COC5(CCN(C(=O)CN6CCC(c7ccc(OC8CCC(=O)NC8=O)cc7OS(C)(=O)=O)CC6)CC5)C4)c(=O)c3c2)c1C#N` (stereo partly drawn) [drawing 1230], the “HiBIT-Degradation A375.10 BRAF 24 hours IP nM” value in assay [2] (24 hours) is “** (<10 μM and >1 μM is **)”. Further, the DC50 in assay [2] (setting [8]) was over 10000 nM. The Emax in assay [2] (setting [9]) was under 60%.
`CCN(C)S(=O)(=O)Nc1ccc(F)c(Oc2ccc3ncn([C@@H]4COC5(CCN(C(=O)CN6CCC(c7ccc(C8CCC(=O)NC8=O)cc7OS(C)(=O)=O)CC6)CC5)C4)c(=O)c3c2)c1C#N` (stereo partly drawn) [drawing 1207]: in assay [2] (2 hours), the “HiBIT-Degradation A375.10 BRAF 2 hours IP nM” value was “** (<10 μM and >1 μM is **)”. For the same compound, the DC50 in assay [2] (setting [6]) was over 10000 nM. Besides, the Emax in assay [2] (setting [7]) was under 60%.
Regarding `CCN(C)S(=O)(=O)Nc1ccc(F)c(Oc2ccc3ncn([C@@H]4COC5(CCN(C(=O)CN6CCC(c7ccc(N8CCC(=O)NC8=O)cc7OS(=O)(=O)F)CC6)CC5)C4)c(=O)c3c2)c1C#N` [drawing 1227], the “HiBIT-Degradation A375.10 BRAF 24 hours IP nM” value in assay [2] (24 hours) was “** (<10 μM and >1 μM is **)”. Besides, in assay [2] (setting [8]), the DC50 fell in the range of 1000 to 10000 nM. In addition, the Emax in assay [2] (setting [9]) is under 60%.
As to `CCN(C)S(=O)(=O)Nc1ccc(F)c(Oc2ccc3ncn([C@H]4COC5(CCN(C(=O)CN6CCC(c7ccc(OC8CCC(=O)NC8=O)cc7OS(C)(=O)=O)CC6)CC5)C4)c(=O)c3c2)c1C#N` (stereo partly drawn) [drawing 1224], in assay [2] (24 hours), the “HiBIT-Degradation A375.10 BRAF 24 hours IP nM” value is given as “*** (<= 1 μM is ***)”. Further, the half-maximal degradation concentration (DC50) in assay [2] (setting [8]) was 1000 to 10000 nM. Further, in assay [2] (setting [9]), the Emax was under 60%.
For the compound `CCN(C)S(=O)(=O)Nc1ccc(F)c(Oc2ccc3ncn([C@@H]4COC5(CCN(C(=O)CN6CCC(c7ccc(OC8CCC(=O)NC8=O)cc7OS(=O)(=O)F)CC6)CC5)C4)c(=O)c3c2)c1C#N` (stereo partly drawn) [drawing 1201], the “HiBIT-Degradation A375.10 BRAF 2 hours IP nM” value in assay [2] (2 hours) was “*** (<= 1 μM is)”. The DC50 in assay [2] (setting [6]) fell in the range of 1000 to 10000 nM. Also, the Emax in assay [2] (setting [7]) lay in the range of 60 to 95%.
Taken in the same sequence, the figures for `CCN(C)S(=O)(=O)Nc1ccc(F)c(Oc2ccc3ncn([C@H]4COC5(CCN(C(=O)CN6CCC(c7ccc(OC8CCC(=O)NC8=O)cc7S(=O)(=O)F)CC6)CC5)C4)c(=O)c3c2)c1C#N` (stereo partly drawn) [drawing 1200] were “*** (<= 1 μM is)”, 1000 to 10000 nM and 60 to 95%.
